# Reference: the supplement of paper PMC10307832
# Legend:
# Test in all cases: relative viability (nuclei count vs DMSO), 5 days (fraction); higher = more cells survive
# [1] = compound: COc1cc(Nc2ncc3c(n2)-c2ccc(Cl)cc2C(c2c(F)cccc2OC)=NC3)ccc1C(=O)O [Alisertib] + COc1cc2c(Oc3ccc(NC(=O)C4(C(=O)Nc5ccc(F)cc5)CC4)cc3F)ccnc2cc1OCCCN1CCOCC1 [Foretinib] (partner 0.25 µM)
# Method in brief: (§1)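 Values are medians from duplicate plates. Each reflects relative viability, defined as the nuclei count of treated wells over that of vehicle wells. Lung cancer cell lines in 1536-well plates were pin-tool dosed one day after seeding with one drug alone or with a fixed anchor-drug dose plus five library-drug doses (not always all listed) in √10 steps, then fixed, stained and imaged at 4× after 5 days.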
# [2] = compound: COc1cc(Nc2ncc3c(n2)-c2ccc(Cl)cc2C(c2c(F)cccc2OC)=NC3)ccc1C(=O)O [Alisertib] + CS(=O)(=O)N1CCN(Cc2cc3nc(-c4cccc5[nH]ncc45)nc(N4CCOCC4)c3s2)CC1 [Pictilisib] (partner 1 µM)
# Method in brief: as §1
# [3] = compound: COc1cc(Nc2ncc3c(n2)-c2ccc(Cl)cc2C(c2c(F)cccc2OC)=NC3)ccc1C(=O)O [Alisertib] + NC(=O)Nc1cc(-c2cccc(F)c2)sc1C(=O)N[C@H]1CCCNC1 [AZD7762] (partner 0.2 µM)
# Method in brief: as §1
# [4] = compound: COc1cc(Nc2ncc3c(n2)-c2ccc(Cl)cc2C(c2c(F)cccc2OC)=NC3)ccc1C(=O)O [Alisertib] + O=C(CCCCCCC(=O)Nc1ccccc1)NO [Vorinostat] (partner 1 µM)
# Method in brief: as §1
Cell Line,relative viability ([1]; first compound 0.005 µM),relative viability ([1]; first compound 0.01581 µM),relative viability ([1]; first compound 0.05 µM),relative viability ([1]; first compound 0.1581 µM),relative viability ([1]; first compound 0.5 µM),relative viability ([2]; first compound 0.005 µM),relative viability ([2]; first compound 0.01581 µM),relative viability ([2]; first compound 0.05 µM),relative viability ([2]; first compound 0.1581 µM),relative viability ([2]; first compound 0.5 µM),relative viability ([3]; first compound 0.005 µM),relative viability ([3]; first compound 0.01581 µM),relative viability ([3]; first compound 0.05 µM),relative viability ([3]; first compound 0.1581 µM),relative viability ([3]; first compound 0.5 µM),relative viability ([4]; first compound 0.005 µM),relative viability ([4]; first compound 0.01581 µM),relative viability ([4]; first compound 0.05 µM),relative viability ([4]; first compound 0.1581 µM),relative viability ([4]; first compound 0.5 µM)
HCC-366,0.975,0.156,0.035,0.054,0.055,0.0828,0.135,0.0183,0.0243,0.0203,0.351,0.396,0.0718,0.0314,0.027,0.171,0.0448,0.0208,0.0312,0.0381
NCI-H1975,0.816,0.989,0.501,0.204,0.165,0.26,0.348,0.237,0.151,0.163,0.658,0.618,0.521,0.33,0.192,0.657,0.688,0.284,0.214,0.201
NCI-H1437,1.08,0.939,0.796,0.454,0.236,0.341,0.378,0.219,0.123,0.0875,1.07,1.09,0.751,0.399,0.201,0.774,0.606,0.42,0.283,0.213
NCI-H1651,0.907,0.571,0.445,0.338,0.195,0.51,0.429,0.289,0.161,0.121,0.456,0.455,0.385,0.199,0.129,0.517,0.461,0.325,0.118,0.135
LCLC-103H,0.759,0.544,0.283,0.272,0.236,0.588,0.687,0.573,0.211,0.206,0.711,0.767,0.764,0.41,0.322,0.67,0.561,0.352,0.323,0.396
NCI-H1666,0.841,0.82,0.597,0.415,0.403,0.389,0.355,0.227,0.21,0.214,0.768,0.698,0.636,0.477,0.375,1.01,0.995,0.846,0.617,0.555
NCI-H1734,0.841,0.731,0.314,0.327,0.174,0.427,0.4,0.283,0.226,0.17,0.501,0.366,0.23,0.18,0.149,0.604,0.519,0.302,0.221,0.189
EPLC-272H,0.733,0.554,0.152,0.0794,0.133,0.281,0.244,0.227,0.14,0.124,0.286,0.308,0.196,0.12,0.106,0.454,0.401,0.248,0.104,0.132
